Columns and labels:
[1] = test system: H-Ras-V12 transformed p53−/− MEFs; experiment: Tumor formation after implantation of chemotherapy-treated cells in nude mice; format: in vivo; settings: fifteen days; for tumor formation: MAPKAP kinase-2 siRNA-transfected cells pre-treated with 1 μM cisplatin or 0.1 μM doxorubicin before implantation; for size and weight of tumors relative to tumors formed by untreated cells: control siRNA-transfected cells pre-treated with 1 μM cisplatin or 0.1 μM doxorubicin before implantation
Protocol: To establish whether the absence of MAPKAP kinase-2 could also enhance the anti-tumorigenic effect of cisplatin or doxorubicin in vivo, we introduced control or MAPKAP kinase-2 siRNAs into H-Ras-V12 transformed p53^−/− MEFs, treated them with either vehicle alone, 1 μM cisplatin or 0.1 μM doxorubicin, and then implanted them into nude mice. Each animal received two injections of MAPKAP kinase-2 siRNA-transfected cells (left flank), and two injections of control siRNA transfected cells (right flank), and tumor formation was assessed at fifteen days. […] In general, the size of the tumors resulting from injection of MAPKAP kinase-2 depleted cells was larger than that from control siRNA-transfected cells (FIGS. 17A, 17B, and 17D).
Murine tumor models. H-Ras-V 12-transformed p53^−/− MEFs were used for in vivo tumor formation assays. Cells were transfected with siRNA oligonucleotides against GFP or murine MAPKAP kinase-2 for forty-eight hours, then mock treated or incubated with 0.1 μM doxorubicin or 1 μM cisplatin for eight hours, washed three times in growth media, three times in PBS, trypsinized, and resuspended at a concentration of 10^7 cells/ml in PBS. 10^6 cells were subcutaneously injected into the flanks of nude mice (Ncr nu/nu, Taconic).

[2] = test system: H-Ras-V12 transformed p53−/− MEFs; experiment: Tumor regression assay of established tumors in nude mice; format: in vivo; settings: MK2 depleted tumors; for tumor diameter at start of treatment: before treatment; for tumor diameter after fourteen days of treatment: cisplatin 2 mg/kg or doxorubicin 4 mg/kg intraperitoneal 3× per week
Protocol: For tumor regression assays, H-Ras-V12 transformed p53^−/− MEFs were stably transfected with a lentiviral transfer vector encoding for shRNA targeting either MAPKAP kinase-2 or luciferase. 10^6 cells were injected into the flanks of nude mice as above, and tumors were allowed to form for twelve days. Mice were then treated with either cisplatin (2 mg/kg, intraperitoneal administration 3× per week) or doxorubicin (4 mg/kg, intraperitoneal administration 3× per week), monitored for a total of twenty-six days, and then sacrificed. Tumor diameter was measured periodically during growth and tumors were weighed at the endpoint. Experiments were performed in quadruplicate, and data plotted as sample means with error bars showing standard deviation.
We investigated whether the chemo-sensitizing effect of MK2 depletion in p53 null cells in culture could also be observed when pre-existing p53 deficient tumors were treated with DNA damaging drugs in vivo. In these experiments HRas-V12 transformed p53^−/− MEFs were stably transfected with control shRNA or MK2 shRNA expressed from a murine U6 promoter, using a lentiviral delivering system (FIG. 18A). The lentiviral transfer vector also encoded GFP under the control of a CMV promoter, allowing for fluorescent detection of tumors in situ. Tumors were induced by injection of 10^6 cells into the flanks of nude mice. Twelve days later ˜1 cm diameter tumors had formed at all injection sites, and treatment with cisplatin, doxorubicin, or vehicle was begun (FIG. 18B). In the absence of treatment with DNA damaging drugs, the tumors arising from the MK2 depleted cells in the right flanks of these animals grew slightly larger than those of the luciferase shRNA control cells in the left flanks (FIG. 18B-18D). […] Tumors depleted of MK2 shrank from 1.3 cm to 0.4 cm over fourteen days when treated with cisplatin, and from 1.4 to 0.5 cm when treated with doxorubicin. Thus, the sensitizing effect of MK2 depletion on DNA damage induced cell death in p53-deficient primary cells observed in cell culture was also maintained in vivo.

U2OS cells = experiment: FACS cell cycle analysis (PI, phospho-histone H3) in U2OS cells; format: cell-based, human; settings: MAPKAP kinase-2 depleted U2OS cells; 10 μM drug, nocodazole added three hours later, thirty hours
Protocol: Asynchronous MAPKAP kinase-2 or luciferase shRNA knockdown cells were mock treated or exposed to doxorubicin for thirty hours, and cell cycle progression was monitored by FACS. In one set of experiments, the spindle poison nocodazole was added to the media three hours after addition of doxorubicin, to cause any cells progressing through the cell cycle to arrest in mitosis. DNA content was monitored by PI staining; phospho-histone-H3 staining was used as an indicator of mitotic entry. As shown in the left panels of FIG. 14A, treatment of control luciferase shRNA knockdown cells with doxorubicin led to the accumulation of cells with 4N DNA content, and a lack of phospho-histone-H3 staining in either the absence or presence of nocodazole. The cells expressing the luciferase shRNAs behaved identically to the untransfected doxorubicin-treated control U2OS cell population (FIG. 24B), with the prominent 4N DNA component and the absence of phospho-histone-H3 staining indicative of an intact G2/M checkpoint.
In contrast to the G2/M checkpoint response observed in doxorubicin-treated cells, treatment with the DNA intra-strand cross-linker cisplatin caused U2OS cells to predominantly accumulate in the G1 and S phases of the cell cycle over the subsequent thirty hours (FIG. 24C). RNA interference was used to investigate the role of MAPKAP kinase-2 in this process. […] Strikingly, when nocodazole was added three hours following cisplatin addition, the MAPKAP kinase-2 depleted cells accumulated in a 4N DNA containing peak with ˜42% of the cells staining strongly for phospho-histone H3. Identical results were obtained in cells treated with a second unrelated siRNA sequence against MAPKAP kinase-2.
FACS analysis. UV irradiation was performed at 254 nm (UV-C) using a Stratalinker 2400 (Stratagene). U2OS cells were fixed in 70% ethanol overnight at −20° C., permeabilized with PBS containing 0.2% Triton X-100 for twenty minutes at 4° C., blocked with 2% FBS in PBS, and incubated with 1 μg of anti-phospho-histone H3 per 10^6 cells for sixty minutes on ice. […]

SMILES	tumor formation [1]	size and weight of tumors relative to tumors formed by untreated cells [1] [%]	tumor diameter at start of treatment [2] [cm]	tumor diameter after fourteen days of treatment [2] [cm]	cells staining positively for phospho-histone H3 (U2OS cells) [%]
COc1cccc2c1C(=O)c1c(O)c3c(c(O)c1C2=O)C[C@@](O)(C(=O)CO)C[C@@H]3O[C@H]1C[C@H](N)[C@H](O)[C@H](C)O1 [doxorubicin]	completely eliminated the formation of tumors	~35	1.4	0.5	36.3
N.N.[Cl][Pt][Cl] [cisplatin]	completely eliminated the formation of tumors	~35	1.3	0.4	~42

Reference: patent US8440610B2, “Mapkap kinase-2 as a specific target for blocking proliferation of P53-defective cells” (Massachusetts Institute of Technology, priority 2004, dated 2013)
